The values that follow come from patent US20180282323A1, “Mesoionic imidazole derivatives as insecticides” (BAYER CROPSCIENCE AKTIENGESELLSCHAFT, priority 2015, published 2018).

Data set [1] relates to Tetranychus urticae. The data set is described as follows: Tetranychus urticae spray test, OP-resistant. The note with it: application rate 500 g/ha, bean leaf discs, all stages, after 6 days. Format: in vivo. The method, then:
Tetranychus urticae—Spray Test, OP-Resistant Solvent: 78.0 parts by weight of acetone • • 1.5 parts by weight of dimethylformamide Emulsifier: alkylaryl polyglycol ether
To produce a suitable active ingredient formulation, 1 part by weight of active ingredient is dissolved with the stated parts by weight of solvent and made up with water containing an emulsifier concentration of 1000 ppm until the desired concentration is attained. To produce further test concentrations, the formulation is diluted with emulsifier-containing water.
Discs of bean leaves (Phaseolus vulgaris) infested with all stages of the greenhouse red spider mite (Tetranychus urticae) are sprayed with an active ingredient formulation of the desired concentration.
After 6 days, the efficacy in % is determined. 100% means that all the spider mites have been killed; 0% means that no spider mites have been killed.

The test system of data set [2] is Myzus persicae. The data set is described as follows: Myzus persicae oral test. It is filed as in vivo. The following applies: application rate 20 ppm, oral uptake through parafilm, after 5 days; for pest or weed control at 20 ppm: Myzus persicae, 120 h, read-out: efficacy. The essentials: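 Compound dissolved in acetone, diluted with water, then mixed into IPL41 insect medium with sugar in microtitre plates under parafilm. Mixed-population green peach aphids fed through the membrane; % mortality scored after 5 days (100% = all killed).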

Data set [3] has as its system Myzus persicae. The data set is described as follows: Myzus persicae spray test (bell pepper plants). It is filed as in vivo. The following applies: application rate 100 ppm, after 6 days.
Data set [4] in a line: log P by HPLC on reversed-phase column (EEC directive 79/831 Annex V.A8). It is filed as physicochemical. The gist of the method:
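Determined per EEC directive 79/831 Annex V.A8 by HPLC on a reversed-phase C18 column at 43° C.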

The subject of data set [5] is Ctenocephalides felis. The data set is described as follows: Ctenocephalides felis in vitro contact test with adult cat fleas. Format: in vivo. The following applies: application rate 5 μg/cm^2, after 48 h, adult cat fleas dead or moribund. The method, then: Ctenocephalides felis—In Vitro Contact Tests with Adult Cat Fleas
For the coating of the test tubes, 9 mg of active ingredient are first dissolved in 1 ml of acetone p.a. and then diluted to the desired concentration with acetone p.a. 250 μl of the solution are distributed homogeneously on the inner walls and the base of a 25 ml test tube by turning and rocking on an orbital shaker (rocking rotation at 30 rpm for 2 h). With 900 ppm of active ingredient solution and internal surface area 44.7 cm^2, given homogeneous distribution, an area-based dose of 5 μg/cm^2 is achieved.
After the solvent has evaporated off, the tubes are populated with 5-10 adult cat fleas (Ctenocephalides felis), sealed with a perforated plastic lid and incubated in a horizontal position at room temperature and ambient humidity. After 48 h, efficacy is determined. To this end, the test tubes are stood upright and the fleas are knocked to the base of the tube. Fleas which remain motionless at the base or move in an uncoordinated manner are considered to be dead or moribund.
100% efficacy means that all the fleas were dead or moribund. 0% efficacy means that no fleas were harmed.

Data set [6] concerns Boophilus microplus. In words: Boophilus microplus injection test. The following applies: application rate 20 μg/animal, assessed after 7 days by laying of fertile eggs. Format: in vivo. On the procedure:
Boophilus microplus—Injection Test Solvent: dimethyl sulphoxide
To produce a suitable active ingredient formulation, 10 mg of active ingredient are mixed with 0.5 ml of solvent and the concentrate is diluted with solvent to the desired concentration.
1 μl of the active ingredient solution is injected into the abdomen of 5 engorged adult female cattle ticks (Boophilus microplus). The animals are transferred into dishes and kept in a climate-controlled room.
Efficacy is assessed after 7 days by laying of fertile eggs. Eggs which are not visibly fertile are stored in a climate-controlled cabinet until the larvae hatch after about 42 days. An efficacy of 100% means that none of the ticks has laid any fertile eggs; 0% means that all the eggs are fertile.

Data set [7] has as its system Ctenocephalides felis. The data set is described as follows: Ctenocephalides felis oral test. Format: in vivo. The following applies: application rate 100 ppm in citrated cattle blood, after 2 days. The method, then: Ctenocephalides felis—Oral Test Solvent: dimethyl sulphoxide
For the purpose of production of a suitable active ingredient formulation, 10 mg of active ingredient are mixed with 0.5 ml of dimethyl sulphoxide. Dilution with citrated cattle blood gives the desired concentration.
About 20 unfed adult cat fleas (Ctenocephalides felis) are placed into a chamber which is closed at the top and bottom with gauze. A metal cylinder whose bottom end is closed with parafilm is placed onto the chamber. The cylinder contains the blood/active ingredient formulation, which can be imbibed by the fleas through the parafilm membrane.
After 2 days, the kill in % is determined. 100% means that all of the fleas have been killed; 0% means that none of the fleas have been killed.

For data set [8], the system named is Lucilia cuprina. In words: Lucilia cuprina test. It is filed as in vivo. The following applies: application rate 100 ppm, L1 larvae, after 2 days. The gist of the method: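 About 20 L1 larvae placed in a vessel with minced horsemeat plus compound formulated in DMSO and diluted with water to the test concentration. Kill (%) scored after 2 days; 100% = all larvae dead, 0% = none dead.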

In data set [9] the test system is Musca domestica. The data set is described as follows: Musca domestica test. The note with it: application rate 100 ppm, adult houseflies, after 2 days. Format: in vivo. On the procedure:
Musca domestica Test Solvent: dimethyl sulphoxide
To produce a suitable active ingredient formulation, 10 mg of active ingredient are mixed with 0.5 ml of dimethyl sulphoxide, and the concentrate is diluted with water to the desired concentration.
Vessels containing a sponge treated with sugar solution and the active ingredient formulation of the desired concentration are populated with 10 adult houseflies (Musca domestica).
After 2 days, the kill in % is determined. 100% means that all of the flies have been killed; 0% means that none of the flies have been killed.

Data set [10] relates to Myzus persicae. In words: Myzus persicae spray test (Chinese cabbage leaf discs). Format: in vivo. The following applies: application rate 500 g/ha, after 6 days. The essentials:
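Active ingredient was formulated in acetone/DMF and diluted with water containing 1000 ppm emulsifier. Chinese cabbage leaf discs infested with all aphid stages were sprayed, and % kill was scored after 6 days (100% = all aphids dead).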

Data set [11] has as its system Diabrotica balteata. In words: Diabrotica balteata spray test. Format: in vivo. The following applies: application rate 160 μg/well, wheat grains with beetle larvae, after 7 days. The gist of the method: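 Compound in acetone/DMF with emulsifier water sprayed onto wheat seedlings germinated one day on agar, 5 grains per well. Each well then infested with 10-20 Diabrotica balteata larvae. Efficacy scored after 7 days: 100% = plant growth as uninfected control, 0% = no plants grown.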

Where [12] appears, read: HPLC on reversed-phase column (footnote a).

SMILES strings stand for the structures. Like-named read-outs stand apart in the source and are kept apart here.

`O=C(CCl)c1c([O-])n(Cc2cnc(Cl)s2)c2cccc[n+]12` [Example I-1-002, 3-(Chloroacetyl)-1-[(2-chloro-1,3-thiazol-5-yl)methyl]-1H-imidazo[1,2-a]pyridin-4-ium-2-olate] registered an efficacy in data set [1] of 90%. Besides, in data set [2], the pest or weed control at 20 ppm is 100%. Further, in data set [3], the “efficacy (kill in %)” value came out at 90%. The chromatographic logP in data set [4] and in data set [4] (pH 2.7) was 1.69 each time.
As to `COCC(=O)c1c([O-])n(Cc2ccc(Cl)nc2)c2cccc[n+]12` [Example I-1-003], the efficacy in data set [5] is 100%; in data set [6], 80%; in data set [10], 100%; in [2], 100%. The “efficacy (kill in %)” value was found to be 95% in data set [7], 100% in [8] and 80% in [9]. This molecule also came in with a log p in data set [4] (setting [12]) of 1.18.
Consider `COCC(=O)c1c([O-])n(Cc2cnc(Cl)s2)c2cccc[n+]12` [Example I-1-008, 1-[(2-Chloro-1,3-thiazol-5-yl)methyl]-3-(methoxyacetyl)-1H-imidazo[1,2-a]pyridin-4-ium-2-olate], for which the efficacy in data set [6], in data set [11] and in data set [10] was 100% throughout. Further, the “efficacy (kill in %)” value was found to be 90% in [8] and 100% in data set [9]. In addition, in [2], the pest or weed control at 20 ppm was 100%. The chromatographic logP in data set [4] and in [4] (pH 2.7) was 1.23 each time.
For the molecule `O=C(Cn1cccn1)c1c([O-])n(Cc2cnc(Cl)s2)c2cccc[n+]12` [Example I-1-009, 1-[(2-Chloro-1,3-thiazol-5-yl)methyl]-3-(1H-pyrazol-1-ylacetyl)-1H-imidazo[1,2-a]pyridin-4-ium-2-olate], the efficacy in data set [6] came to 100%; in data set [1] it was 90%; in data set [10], 90%. In [8], the “efficacy (kill in %)” value is reported as 100%. The pest or weed control at 20 ppm in data set [2] worked out at 100%. In addition, the chromatographic logP in [4] (reversed-phase C18 HPLC column, pH 2.7, HPLC on reversed-phase column (footnote a), read-out: log p) turned out to be 1.47; in [4] (reversed-phase C18 HPLC column, HPLC-MS, reversed-phase C18, 43° C., calibration with alkan-2-ones, read-out: log P), 1.47.
In the case of `O=C(Cn1cncn1)c1c([O-])n(Cc2cnc(Cl)s2)c2cccc[n+]12` [Example I-1-014], the figures for the efficacy in [1] and in [2] were 90% and 100%, respectively. In [4] (setting [12]), the log p is recorded as 1.1.
The like results for `O=C(COc1ccccc1)c1c([O-])n(Cc2cnc(Cl)s2)c2cccc[n+]12` [Example I-1-017] were, in that order, 90%, 100% and 2.34.
In turn, `O=C(CCl)c1c([O-])n(Cc2cncnc2)c2cccc[n+]12` [Example I-1-019] returned an efficacy in [1] of 90%. The log p in [4] (setting [12]) is recorded as 0.77.
Regarding `CCOCC(=O)c1c([O-])n(Cc2cnc(Cl)s2)c2cccc[n+]12` [Example I-1-032], the efficacy in data set [5], in [11] and in data set [2] was 100% throughout. Further, the “efficacy (kill in %)” value in data set [8] is 90%; in data set [9], 100%; in data set [3], 100%. This molecule also yielded a log p in data set [4] (setting [12]) of 1.57.
Consider `CCCOCC(=O)c1c([O-])n(Cc2cnc(Cl)s2)c2cccc[n+]12` [Example I-1-033], for which the efficacy came to 90% in data set [5], 80% in data set [6], 100% in [11] and 100% in data set [2]. Also, the “efficacy (kill in %)” value is 90% in [8], 100% in [9] and 100% in data set [3]. The log p in [4] (setting [12]) is 1.92.
`CSCC(=O)c1c([O-])n(Cc2cnc(Cl)s2)c2cccc[n+]12` [Example I-1-034]: the efficacy in data set [6] is listed as 80%; in [11], 100%; in data set [10] it was 90%; in [2], 100%. Also, the “efficacy (kill in %)” value in data set [8] is 100%; in data set [9] it was 80%. Besides, in data set [4] (setting [12]), the log p was 1.73.
On to `O=C(NC1CC1)c1c([O-])n(Cc2cnc(Cl)s2)c2cccc[n+]12` [Example I-1-111, 1-[(2-Chloro-1,3-thiazol-5-yl)methyl]-3-(cyclopropylcarbamoyl)-1H-imidazo[1,2-a]pyridin-4-ium-2-olate], for which the efficacy in data set [5], in data set [11] and in data set [10] was 100% in each case. For the same molecule, the “efficacy (kill in %)” value in data set [8] and in [9] was 100% throughout. Moreover, the pest or weed control at 20 ppm in data set [2] stood at 100%. In addition, the chromatographic logP in data set [4] and in [4] (pH 2.7) was 1.63 in each case.
On to `O=C(NCC(F)(F)F)c1c([O-])n(Cc2cnc(Cl)s2)c2cccc[n+]12` [Example I-1-137], for which the “efficacy (kill in %)” value in data set [8] and in data set [3] was 95% each time. Also, the efficacy in [11] was 100%; in data set [1] it was 90%; in [2], 100%. Also, in [4] (setting [12]), the log p is given as 2.08.
